Measurements: patent publication US20130225522A1, “COMPOSITION FOR RELIEVING STIMULUS OF SKIN CAUSED BY DYE” (Amorepacific Corporation, priority 2009, published 2013)

System: mouse ear
Assay: mouse ear swelling test (MEST)
Format: in vivo
Conditions: BALB/c mouse
Protocol: To evaluate an effect of relieving skin irritation caused by a dye and for preventing or inhibiting inflammation caused by a dye, the mouse ear swelling test (MEST) using a mouse is carried out in the manner as described below.
A 7 weeks-aged mouse subject (BALC/c) is obtained and subjected to quarantine and adaptation for a period of 10 days. Then, the mouse is dehaired at its abdominal portion, and a main ingredient of dye, i.e. 3% paraphenylene diamine (PPD) is applied thereto in combination with a monosaccharide (glucose, galactose or fructose) or disaccharide (maltose, lactose or sucrose) for 7 days three times a day. As a control, each of dimethyl sulfoxide (DMSO) solvent and 3% PPD is applied. Twenty-four hours after the final application, the mouse ear is weighed. After weighing, the mouse ear is fixed in formalin and subjected to hematoxylin & eosin (H&E) staining for a histopathological test. Then, the thickness of the mouse ear is determined. Herein, the weight of the mouse ear is measured by biopsy of the ear of the mouse subject (Balb/c), to which each test sample is applied, using a 6 mm punch. The thickness of the mouse ear is determined by measuring the thickness of the ear of the mouse subject (Balb/c) stained after weighing the mouse ear weight by using a microscope.

With `Nc1ccc(N)cc1` [PPD (3%), paraphenylene diamine] the Ear thickness (3% PPD alone or in combination with saccharide applied for 7 days three times a day, formalin-fixed, H&E stained ear measured by microscope) was 433.28 ± 11.57 μm and the Ear weight (3% PPD alone or in combination with saccharide applied to dehaired abdominal portion for 7 days three times a day, ear weighed 24 h after final application, 6 mm punch biopsy) was 14.74 ± 0.23 mg.
